Measurements from ChEMBL document CHEMBL5212743, “Selectivity Literature for EUbOPEN Chemogenomics Library wave 3” (2023).
Values belong to the compound of their own block, whether it stands above or below them.

Tests used:
[1] = target: MAP kinase-interacting serine/threonine-protein kinase 2 (Homo sapiens, UniProt Q9HBH9); assay: Selectivity interaction (KinomeScan (DiscoverX, competition-binding assay)) EUB0000637a MKNK2
[2] = target: Dual specificity protein kinase CLK1 (Homo sapiens, UniProt P49759); assay: Selectivity interaction (KinomeScan (DiscoverX, competition-binding assay)) EUB0000637a CLK1
[3] = target: Vascular endothelial growth factor receptor 1 (Homo sapiens, UniProt P17948); assay: Selectivity interaction (KinomeScan (DiscoverX, competition-binding assay)) EUB0000637a FLT1
[4] = target: T1, Gamma-aminobutyric acid receptor subunit alpha-1 (Homo sapiens, UniProt P14867); assay: Selectivity interaction (GPCR panel (PDSP screen)) EUB0000326a GABRA1
T1 sequence (P14867 whole entry): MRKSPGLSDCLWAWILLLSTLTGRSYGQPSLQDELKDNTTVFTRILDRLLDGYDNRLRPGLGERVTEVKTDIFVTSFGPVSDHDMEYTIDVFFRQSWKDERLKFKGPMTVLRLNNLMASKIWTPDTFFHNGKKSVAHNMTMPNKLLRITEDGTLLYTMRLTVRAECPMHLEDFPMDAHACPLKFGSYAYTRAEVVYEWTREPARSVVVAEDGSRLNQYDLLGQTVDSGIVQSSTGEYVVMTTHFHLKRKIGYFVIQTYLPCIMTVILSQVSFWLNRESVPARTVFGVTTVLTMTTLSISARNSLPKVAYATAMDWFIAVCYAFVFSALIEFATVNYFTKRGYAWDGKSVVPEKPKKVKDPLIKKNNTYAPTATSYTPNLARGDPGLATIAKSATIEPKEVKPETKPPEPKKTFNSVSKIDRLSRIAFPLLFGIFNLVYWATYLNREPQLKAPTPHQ

[5] = target: T2, Ephrin type-B receptor 6 (Homo sapiens) (UniProt O15197); assay: Selectivity interaction (KinomeScan (DiscoverX)) EUB0000326a EPHB6; details: Inhibition of LnCaP-FGC cell proliferation > […] µM (PMID: 28953875);, Selectivity Remarks Screened at 1 µM (in vitro, >[…]-fold less potent then probe A-485), Selectivity Source Knowledge ht
T2 sequence (whole entry): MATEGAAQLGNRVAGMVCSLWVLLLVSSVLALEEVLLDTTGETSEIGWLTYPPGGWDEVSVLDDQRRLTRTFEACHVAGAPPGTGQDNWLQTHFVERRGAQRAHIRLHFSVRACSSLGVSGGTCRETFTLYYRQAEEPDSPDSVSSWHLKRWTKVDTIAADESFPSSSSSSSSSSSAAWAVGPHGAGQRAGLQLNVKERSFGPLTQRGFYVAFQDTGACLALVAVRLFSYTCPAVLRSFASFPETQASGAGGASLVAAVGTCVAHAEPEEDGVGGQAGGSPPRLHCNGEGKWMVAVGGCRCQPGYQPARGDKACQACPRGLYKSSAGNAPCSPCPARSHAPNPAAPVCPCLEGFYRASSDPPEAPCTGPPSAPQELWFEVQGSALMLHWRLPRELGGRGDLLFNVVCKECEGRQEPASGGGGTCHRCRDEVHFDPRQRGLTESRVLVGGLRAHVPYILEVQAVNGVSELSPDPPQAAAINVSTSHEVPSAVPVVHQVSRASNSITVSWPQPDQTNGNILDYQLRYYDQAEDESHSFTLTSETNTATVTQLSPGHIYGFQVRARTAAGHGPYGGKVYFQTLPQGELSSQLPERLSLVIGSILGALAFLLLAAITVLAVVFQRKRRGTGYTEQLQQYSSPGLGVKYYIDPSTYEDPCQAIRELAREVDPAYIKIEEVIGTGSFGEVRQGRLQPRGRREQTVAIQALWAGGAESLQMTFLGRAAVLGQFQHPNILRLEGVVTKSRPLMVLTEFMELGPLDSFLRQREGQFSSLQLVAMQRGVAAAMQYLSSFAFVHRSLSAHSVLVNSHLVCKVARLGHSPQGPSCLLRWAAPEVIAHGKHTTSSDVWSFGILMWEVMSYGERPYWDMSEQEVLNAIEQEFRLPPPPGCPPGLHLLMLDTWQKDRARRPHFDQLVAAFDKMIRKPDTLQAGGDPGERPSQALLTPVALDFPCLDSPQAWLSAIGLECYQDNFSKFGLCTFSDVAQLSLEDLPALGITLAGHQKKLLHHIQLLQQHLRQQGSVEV

[6] = target: High affinity nerve growth factor receptor (Homo sapiens, UniProt P04629); assay: Selectivity interaction (KinomeScan (DiscoverX)) EUB0000326a NTRK1; details: Inhibition of LnCaP-FGC cell proliferation > […] µM (PMID: 28953875);, Selectivity Remarks Screened at 1 µM (in vitro, >[…]-fold less potent then probe A-485), Selectivity Source Knowledge ht
[7] = target: Phosphatidylinositol 4,5-bisphosphate 3-kinase catalytic subunit alpha isoform (Homo sapiens, UniProt P42336); assay: Selectivity interaction (KinomeScan (DiscoverX)) EUB0000326a PIK3CA; details: Inhibition of LnCaP-FGC cell proliferation > […] µM (PMID: 28953875);, Selectivity Remarks Screened at 1 µM (in vitro, >[…]-fold less potent then probe A-485), Selectivity Source Knowledge ht
[8] = target: 5-hydroxytryptamine receptor 2B (Homo sapiens, UniProt P41595); assay: Selectivity interaction (GPCR panel (PDSP screen)) EUB0000710a HTR2B
[9] = target: T3, Serine/threonine-protein kinase TAO3 (Homo sapiens) (UniProt Q9H2K8); assay: Selectivity interaction (KinomeScan (DiscoverX)) EUB0000710a TAOK3; details: at 1 µM
T3 sequence (whole entry): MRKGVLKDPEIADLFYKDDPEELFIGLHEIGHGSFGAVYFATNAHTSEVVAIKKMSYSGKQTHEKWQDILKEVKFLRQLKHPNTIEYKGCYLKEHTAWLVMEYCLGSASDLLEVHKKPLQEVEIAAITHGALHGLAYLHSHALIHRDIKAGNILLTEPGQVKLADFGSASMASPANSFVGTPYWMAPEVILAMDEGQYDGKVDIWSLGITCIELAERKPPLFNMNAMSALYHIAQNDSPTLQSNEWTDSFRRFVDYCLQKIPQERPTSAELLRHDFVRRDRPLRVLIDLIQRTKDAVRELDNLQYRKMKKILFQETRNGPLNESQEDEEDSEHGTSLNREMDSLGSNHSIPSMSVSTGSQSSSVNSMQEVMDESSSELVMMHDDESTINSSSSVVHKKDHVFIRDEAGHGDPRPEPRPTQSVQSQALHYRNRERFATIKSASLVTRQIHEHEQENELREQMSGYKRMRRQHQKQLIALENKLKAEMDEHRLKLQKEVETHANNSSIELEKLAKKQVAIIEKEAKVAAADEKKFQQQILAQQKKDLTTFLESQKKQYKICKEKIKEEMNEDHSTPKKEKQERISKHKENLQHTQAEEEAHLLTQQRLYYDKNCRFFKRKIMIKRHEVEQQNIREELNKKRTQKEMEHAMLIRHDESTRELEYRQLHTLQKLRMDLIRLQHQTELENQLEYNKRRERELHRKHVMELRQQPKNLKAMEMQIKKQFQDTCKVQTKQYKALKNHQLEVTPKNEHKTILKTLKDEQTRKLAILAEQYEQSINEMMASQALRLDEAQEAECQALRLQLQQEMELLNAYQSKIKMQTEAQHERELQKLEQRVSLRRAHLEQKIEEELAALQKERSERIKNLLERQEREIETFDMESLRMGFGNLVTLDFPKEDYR

[10] = target: T4, Myosin-IIIb (Homo sapiens) (UniProt Q8WXR4); assay: Selectivity interaction (KinomeScan (DiscoverX)) EUB0000710a MYO3B; details: at 1 µM
T4 sequence (whole entry): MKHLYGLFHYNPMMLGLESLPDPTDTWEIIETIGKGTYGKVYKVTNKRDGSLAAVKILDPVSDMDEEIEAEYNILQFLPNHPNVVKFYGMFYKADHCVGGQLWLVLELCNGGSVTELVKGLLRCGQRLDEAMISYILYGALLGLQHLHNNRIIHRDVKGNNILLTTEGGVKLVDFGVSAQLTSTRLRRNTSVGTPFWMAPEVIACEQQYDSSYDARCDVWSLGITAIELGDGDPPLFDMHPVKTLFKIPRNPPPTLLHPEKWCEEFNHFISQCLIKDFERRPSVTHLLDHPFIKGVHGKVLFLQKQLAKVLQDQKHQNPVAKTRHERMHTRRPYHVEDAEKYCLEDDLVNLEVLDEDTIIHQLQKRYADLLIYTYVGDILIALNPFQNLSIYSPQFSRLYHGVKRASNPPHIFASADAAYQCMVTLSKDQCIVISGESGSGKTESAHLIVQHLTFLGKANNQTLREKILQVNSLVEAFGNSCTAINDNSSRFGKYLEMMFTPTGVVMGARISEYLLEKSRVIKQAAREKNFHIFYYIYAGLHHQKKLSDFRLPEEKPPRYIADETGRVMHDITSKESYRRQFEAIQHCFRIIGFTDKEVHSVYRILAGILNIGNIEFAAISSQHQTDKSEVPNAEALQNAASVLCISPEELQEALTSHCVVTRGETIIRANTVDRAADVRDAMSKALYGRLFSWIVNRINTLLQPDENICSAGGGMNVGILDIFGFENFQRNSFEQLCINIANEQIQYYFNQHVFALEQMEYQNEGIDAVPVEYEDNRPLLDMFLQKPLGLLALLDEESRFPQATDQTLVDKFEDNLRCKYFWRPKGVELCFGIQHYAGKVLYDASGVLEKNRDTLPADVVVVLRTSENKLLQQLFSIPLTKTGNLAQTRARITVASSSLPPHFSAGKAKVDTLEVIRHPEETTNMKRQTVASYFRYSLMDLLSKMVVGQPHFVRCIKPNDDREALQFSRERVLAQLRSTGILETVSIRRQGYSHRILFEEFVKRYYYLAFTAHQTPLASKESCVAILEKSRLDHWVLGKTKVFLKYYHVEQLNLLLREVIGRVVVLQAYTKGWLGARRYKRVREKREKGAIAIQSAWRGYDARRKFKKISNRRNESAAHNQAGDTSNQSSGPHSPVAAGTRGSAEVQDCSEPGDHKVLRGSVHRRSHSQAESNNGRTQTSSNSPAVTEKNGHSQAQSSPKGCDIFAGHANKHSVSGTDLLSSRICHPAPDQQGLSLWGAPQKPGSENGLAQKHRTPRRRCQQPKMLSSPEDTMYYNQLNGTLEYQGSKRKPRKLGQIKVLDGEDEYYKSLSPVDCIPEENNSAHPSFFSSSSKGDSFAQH

[11] = target: Epithelial discoidin domain-containing receptor 1 (Homo sapiens, UniProt Q08345); assay: Selectivity interaction (KinomeScan (DiscoverX)) EUB0000710a DDR1; details: at 1 µM
[12] = test system: Epidermal growth factor receptor (Homo sapiens), P00533 [L861Q]; assay: Selectivity interaction (KinomeScan (DiscoverX)) EUB0000710a EGFR; details: at 1 µM
[13] = target: Serine/threonine-protein kinase TNNI3K (Homo sapiens) (UniProt Q59H18); assay: Selectivity interaction (KinomeScan (DiscoverX)) EUB0000710a TNNI3K; details: at 1 µM
[14] = test system: Phosphatidylinositol 4,5-bisphosphate 3-kinase catalytic subunit alpha isoform (Homo sapiens), P42336 [Q546K]; assay: Selectivity interaction (KinomeScan (DiscoverX)) EUB0000710a PIK3CA; details: at 1 µM
Chain of Phosphatidylinositol 4,5-bisphosphate 3-kinase catalytic subunit alpha isoform (Homo sapiens), P42336 [Q546K] (P42336 whole entry Q546K, canonical isoform): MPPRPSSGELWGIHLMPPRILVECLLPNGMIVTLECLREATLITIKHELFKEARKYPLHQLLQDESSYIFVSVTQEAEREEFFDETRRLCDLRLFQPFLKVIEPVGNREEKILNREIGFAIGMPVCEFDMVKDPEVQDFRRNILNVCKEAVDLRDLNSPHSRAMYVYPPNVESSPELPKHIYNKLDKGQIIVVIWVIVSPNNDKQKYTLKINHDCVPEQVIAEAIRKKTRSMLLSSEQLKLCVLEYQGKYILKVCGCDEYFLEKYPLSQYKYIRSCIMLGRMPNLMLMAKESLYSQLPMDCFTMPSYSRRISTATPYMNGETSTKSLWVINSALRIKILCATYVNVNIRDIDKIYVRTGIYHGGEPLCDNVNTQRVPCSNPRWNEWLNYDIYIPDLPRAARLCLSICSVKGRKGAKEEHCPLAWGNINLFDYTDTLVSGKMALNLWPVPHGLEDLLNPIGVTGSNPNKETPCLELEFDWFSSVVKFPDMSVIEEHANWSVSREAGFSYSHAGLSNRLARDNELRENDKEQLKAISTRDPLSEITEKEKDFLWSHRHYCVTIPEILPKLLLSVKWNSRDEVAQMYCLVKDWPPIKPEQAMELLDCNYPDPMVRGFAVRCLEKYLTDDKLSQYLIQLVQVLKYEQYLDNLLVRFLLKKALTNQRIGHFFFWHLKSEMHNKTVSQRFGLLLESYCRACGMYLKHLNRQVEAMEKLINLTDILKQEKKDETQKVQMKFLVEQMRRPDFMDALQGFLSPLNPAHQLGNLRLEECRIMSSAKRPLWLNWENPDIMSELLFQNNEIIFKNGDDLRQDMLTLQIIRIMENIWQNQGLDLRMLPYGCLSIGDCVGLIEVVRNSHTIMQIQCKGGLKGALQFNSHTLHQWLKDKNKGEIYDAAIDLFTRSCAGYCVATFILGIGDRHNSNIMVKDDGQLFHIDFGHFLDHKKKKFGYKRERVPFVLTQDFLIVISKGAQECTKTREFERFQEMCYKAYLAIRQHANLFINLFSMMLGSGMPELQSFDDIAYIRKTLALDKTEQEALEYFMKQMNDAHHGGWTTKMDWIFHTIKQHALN

Chain of Phosphatidylinositol 4,5-bisphosphate 3-kinase catalytic subunit alpha isoform (P42336 whole entry, canonical isoform): as the sequence (P42336 whole entry Q546K, canonical isoform) above, with K546Q counted along it
Chain of High affinity nerve growth factor receptor (P04629 33-796 limits assumed): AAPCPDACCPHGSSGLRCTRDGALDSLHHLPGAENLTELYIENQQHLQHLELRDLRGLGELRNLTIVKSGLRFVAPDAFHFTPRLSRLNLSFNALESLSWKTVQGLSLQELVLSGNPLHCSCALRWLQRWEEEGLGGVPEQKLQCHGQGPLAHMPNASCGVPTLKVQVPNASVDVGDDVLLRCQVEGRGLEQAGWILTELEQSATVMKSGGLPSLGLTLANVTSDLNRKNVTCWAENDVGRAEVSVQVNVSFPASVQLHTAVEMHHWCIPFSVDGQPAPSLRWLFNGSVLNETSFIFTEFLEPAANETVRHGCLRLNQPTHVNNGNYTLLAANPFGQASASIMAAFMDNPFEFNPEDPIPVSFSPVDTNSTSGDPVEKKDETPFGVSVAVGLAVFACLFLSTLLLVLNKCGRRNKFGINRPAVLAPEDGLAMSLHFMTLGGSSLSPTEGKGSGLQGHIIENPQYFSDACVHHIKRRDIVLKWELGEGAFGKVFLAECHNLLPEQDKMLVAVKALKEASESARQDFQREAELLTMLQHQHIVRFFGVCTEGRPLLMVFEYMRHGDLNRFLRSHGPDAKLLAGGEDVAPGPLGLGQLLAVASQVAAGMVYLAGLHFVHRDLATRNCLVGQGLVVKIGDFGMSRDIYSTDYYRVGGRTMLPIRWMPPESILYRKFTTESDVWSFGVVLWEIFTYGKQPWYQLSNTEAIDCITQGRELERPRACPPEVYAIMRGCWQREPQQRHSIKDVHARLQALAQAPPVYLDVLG
Chain of Vascular endothelial growth factor receptor 1 (P17948 whole entry): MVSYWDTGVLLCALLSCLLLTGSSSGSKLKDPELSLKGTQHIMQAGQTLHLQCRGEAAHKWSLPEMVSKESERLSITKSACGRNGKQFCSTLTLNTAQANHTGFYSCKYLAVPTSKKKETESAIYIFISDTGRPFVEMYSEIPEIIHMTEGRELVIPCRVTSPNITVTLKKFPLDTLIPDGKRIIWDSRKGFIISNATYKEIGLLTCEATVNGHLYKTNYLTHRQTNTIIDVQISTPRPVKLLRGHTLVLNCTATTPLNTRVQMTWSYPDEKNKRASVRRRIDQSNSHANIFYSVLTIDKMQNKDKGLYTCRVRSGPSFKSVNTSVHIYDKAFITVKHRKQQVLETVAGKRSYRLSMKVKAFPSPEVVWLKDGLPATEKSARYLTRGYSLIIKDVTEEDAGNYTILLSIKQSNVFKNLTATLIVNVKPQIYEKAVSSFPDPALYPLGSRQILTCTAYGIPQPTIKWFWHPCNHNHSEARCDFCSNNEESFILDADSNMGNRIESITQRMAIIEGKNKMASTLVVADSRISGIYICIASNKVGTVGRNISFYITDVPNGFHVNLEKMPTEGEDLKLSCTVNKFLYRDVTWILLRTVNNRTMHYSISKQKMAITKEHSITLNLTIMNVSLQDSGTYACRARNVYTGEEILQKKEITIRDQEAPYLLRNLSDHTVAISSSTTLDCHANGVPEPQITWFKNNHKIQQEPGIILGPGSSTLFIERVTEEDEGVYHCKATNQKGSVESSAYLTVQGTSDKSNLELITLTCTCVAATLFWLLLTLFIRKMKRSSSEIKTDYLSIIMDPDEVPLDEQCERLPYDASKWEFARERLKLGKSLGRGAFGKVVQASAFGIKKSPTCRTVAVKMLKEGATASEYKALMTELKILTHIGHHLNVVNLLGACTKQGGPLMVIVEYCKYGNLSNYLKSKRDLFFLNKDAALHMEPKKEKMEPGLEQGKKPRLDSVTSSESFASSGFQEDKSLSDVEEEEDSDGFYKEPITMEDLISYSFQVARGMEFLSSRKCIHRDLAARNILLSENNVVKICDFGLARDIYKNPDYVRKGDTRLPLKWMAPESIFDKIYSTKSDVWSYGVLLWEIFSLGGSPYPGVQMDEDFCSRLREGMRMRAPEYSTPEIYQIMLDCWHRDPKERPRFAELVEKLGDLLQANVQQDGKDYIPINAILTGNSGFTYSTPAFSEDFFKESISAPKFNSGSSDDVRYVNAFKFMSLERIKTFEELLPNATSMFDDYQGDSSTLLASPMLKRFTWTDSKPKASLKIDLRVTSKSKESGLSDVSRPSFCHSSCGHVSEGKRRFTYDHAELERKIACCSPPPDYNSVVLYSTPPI
Chain of 5-hydroxytryptamine receptor 2B (P41595 whole entry): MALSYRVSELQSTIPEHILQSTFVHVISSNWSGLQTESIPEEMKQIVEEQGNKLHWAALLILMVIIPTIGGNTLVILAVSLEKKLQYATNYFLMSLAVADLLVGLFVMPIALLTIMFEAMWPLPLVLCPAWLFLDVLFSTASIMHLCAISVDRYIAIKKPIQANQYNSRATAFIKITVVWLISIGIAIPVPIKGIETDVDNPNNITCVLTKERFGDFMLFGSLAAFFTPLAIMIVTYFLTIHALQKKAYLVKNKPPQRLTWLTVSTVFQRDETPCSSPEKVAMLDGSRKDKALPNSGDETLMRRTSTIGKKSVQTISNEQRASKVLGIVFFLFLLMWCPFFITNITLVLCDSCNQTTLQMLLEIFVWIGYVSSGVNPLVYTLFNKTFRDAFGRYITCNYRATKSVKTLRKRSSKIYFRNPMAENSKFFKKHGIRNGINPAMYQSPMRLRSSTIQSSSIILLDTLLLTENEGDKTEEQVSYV
Chain of Epidermal growth factor receptor (Homo sapiens), P00533 [L861Q] (P00533 whole entry L861Q): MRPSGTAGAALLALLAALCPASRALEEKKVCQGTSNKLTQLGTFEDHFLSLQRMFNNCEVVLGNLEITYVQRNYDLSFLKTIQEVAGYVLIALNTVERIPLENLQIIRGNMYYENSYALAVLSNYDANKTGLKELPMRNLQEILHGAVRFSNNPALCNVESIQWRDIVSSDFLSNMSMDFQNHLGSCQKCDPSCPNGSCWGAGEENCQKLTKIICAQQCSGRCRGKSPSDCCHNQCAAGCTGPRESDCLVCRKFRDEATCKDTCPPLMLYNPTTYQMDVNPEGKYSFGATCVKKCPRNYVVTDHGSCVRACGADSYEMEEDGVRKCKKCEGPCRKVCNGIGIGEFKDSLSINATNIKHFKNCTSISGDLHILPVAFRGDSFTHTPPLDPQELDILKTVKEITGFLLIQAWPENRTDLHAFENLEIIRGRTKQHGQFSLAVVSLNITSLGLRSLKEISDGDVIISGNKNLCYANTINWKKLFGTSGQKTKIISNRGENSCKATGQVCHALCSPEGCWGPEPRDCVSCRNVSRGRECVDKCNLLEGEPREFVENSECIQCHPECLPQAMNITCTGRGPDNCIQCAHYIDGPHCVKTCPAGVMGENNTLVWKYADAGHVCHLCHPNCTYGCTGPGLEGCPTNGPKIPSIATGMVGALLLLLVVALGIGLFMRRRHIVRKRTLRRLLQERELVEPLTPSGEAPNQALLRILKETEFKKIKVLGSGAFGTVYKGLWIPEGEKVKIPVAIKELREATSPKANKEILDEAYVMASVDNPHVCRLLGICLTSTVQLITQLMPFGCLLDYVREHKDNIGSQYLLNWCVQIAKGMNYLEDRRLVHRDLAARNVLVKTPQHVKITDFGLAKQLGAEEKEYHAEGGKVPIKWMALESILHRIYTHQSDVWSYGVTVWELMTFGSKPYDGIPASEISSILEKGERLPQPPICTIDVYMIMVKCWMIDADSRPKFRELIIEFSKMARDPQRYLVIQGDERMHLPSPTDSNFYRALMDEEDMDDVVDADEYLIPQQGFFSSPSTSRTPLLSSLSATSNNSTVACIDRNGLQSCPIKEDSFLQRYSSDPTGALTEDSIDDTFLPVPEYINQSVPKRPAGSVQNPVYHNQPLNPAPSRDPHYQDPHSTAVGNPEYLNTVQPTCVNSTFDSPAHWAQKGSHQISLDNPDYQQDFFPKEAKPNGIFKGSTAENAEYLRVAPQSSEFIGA

Kd [1]: 0.33 µM
Kd [2]: 0.31 µM
Kd [3]: 0.21 µM
SMILES: NC(=O)c1ccc2nc(-c3ccc(C4(N)CCC4)cc3)c(-c3ccccc3)n2n1 [BAY-1125976]

Ki [4]: 2.58 µM
% of control [5]: 0%
% of control [6]: 41%
% of control [7]: 28%
SMILES: CNC(=O)Nc1ccc2c(c1)[C@@]1(CC2)OC(=O)N(CC(=O)N(Cc2ccc(F)cc2)[C@@H](C)C(F)(F)F)C1=O [A-486]

Ki [8]: 1.88 µM
% of control [9]: 54%
% of control [10]: 49%
% of control [11]: 47%
% of control [12]: 39.5%
% of control [13]: 51%
% of control [14]: 41%
SMILES: Cc1cnc(-c2cc(Cl)ccc2F)cc1-n1c(=O)n(CC(N)=O)c2ccccc21 [Al11]
